Measured values as given in patent US6380218B1, “Nicotinamide derivatives” (Pfizer Inc, priority 1997, dated 2002).
Counter-ions that a name gives are not always drawn.

How the values were obtained:
[1] = tested on: leukotriene E4 (LTE4) release, human whole blood eosinophils; assay: Sephadex beads-induced LTE4 release in human whole blood (eosinophil activation); type: cell-based; conditions: for IC50: Eosinophil, Sephadex beads, head does not say whether IC30 or IC50, read-out: HWB Eosinophil IC30 or IC50, LTE4; for Enantiomer (+) vs. (−), LTE4: potency of (+) relative to (−) enantiomer
Description: (§1) Inhibition of Eosinophil Degranulation and Activation in Human Whole Blood
(§2) Human Blood Eosinophil Degranulation and Activation Measurement
(§3) Blood Collection and Compound Incubation
(§4) One hundred ml blood is obtained from normal volunteers in Vacutainer tube #6480 (14.3 USP units sodium heparin/ml blood). Heparinized blood is pooled in 50 ml conical centrifuge tubes at 22° C. On ml blood is placed in a 12×75 mm siliconized glass tube containing 1 ul DMSO or 1 ul test compound in triplicate. After mixing, tubes are placed in a shaking water bath at 37° C. for 15 minutes. One ul PGE1 in DMSO is added to all tubes to give a final concentration of 1 uM. After mixing, 100 ul PBS (negative control) or Sephadex G-15 beads in PBS (8.25-16.5 mg/ml final concentration) is added to tubes. After mixing, all tubes are incubated in a shaking water bath at 37° C. for 1-2 hours.
(§5) Preparation of Plasma Samples
(§6) At the end of incubation, 20 ul of 15% EDTA in PBS is added to each assay tube. After mixing, the samples are centrifuged at 2,000 rpm (Sorvall 6000B centrifuge) at 22° C. for 5 minutes.
(§7) EDN (or EPX) and LTE4 Measurements and the Effect of Compounds
(§8) All plasma samples are tested for EDN (eosinophil derived neurotoxin) and LTE4 (leukotriene E4) levels. […] The levels of EDN and LTE4 are determined by a RIA (Kabi Pharmacia Diagnostics) and EIA (Cayman Chemical), respectively. EDN and LTE4 levels are calculated by comparison to a standard curve using Microsoft Excel or other appropriate software. Percent of control EDN or LTE4 release is calculated by:
% Control LTE4=[LTE4(compound)−LTE4(blank)]/[LTE4(total)−LTE4(blank)]
(§9) where the blank is the level of EDN or LTE4 in the absence of Sephadex beads and the total is the level of EDN or LTE4 in the presence of Sephadex beads. An IC30 or IC50 value is defined as the concentration of a compound that inhibits specific EDN or LTE 4 release by 30 or 50%, respectively.
(§10) To assess pharmacologically which PDE4 isozyme(s) is responsible for eosinophil activation, we have prepared enantiomers of PDE4 inhibitors and compare the inhibitory effect of these enantiomers on PDE activity and eosinophil activation. PDE4 activity is assessed by measuring hydrolysis of 1 uM cAMP by individual human recombinant PDE4 isozymes (PDE4A, 4B, 4C or 4D). Eosinophil activation is estimated by measuring Sephadex beads-induced release of eosinophil derived neurotoxin (EDN) and leukotriene E4 in human whole blood. Table 1 illustrates comparison of one example of (−) and (+) enantiomers on the activity of individual PDE4 isozymes and on the release of END and LTE4.

human recombinant PDE4D = human recombinant PDE4D (Homo sapiens, UniProt Q08499); assay: Hydrolysis of 1 uM cAMP by human recombinant PDE4D; type: biochemical; conditions: for IC50: human recombinant PDE4D, 1 uM cAMP, read-out: Isozyme - IC50, 4D; for Enantiomer (+) vs. (−), PDE4D: potency of (+) relative to (−) enantiomer
human recombinant PDE4D, sequence (Q08499 whole entry): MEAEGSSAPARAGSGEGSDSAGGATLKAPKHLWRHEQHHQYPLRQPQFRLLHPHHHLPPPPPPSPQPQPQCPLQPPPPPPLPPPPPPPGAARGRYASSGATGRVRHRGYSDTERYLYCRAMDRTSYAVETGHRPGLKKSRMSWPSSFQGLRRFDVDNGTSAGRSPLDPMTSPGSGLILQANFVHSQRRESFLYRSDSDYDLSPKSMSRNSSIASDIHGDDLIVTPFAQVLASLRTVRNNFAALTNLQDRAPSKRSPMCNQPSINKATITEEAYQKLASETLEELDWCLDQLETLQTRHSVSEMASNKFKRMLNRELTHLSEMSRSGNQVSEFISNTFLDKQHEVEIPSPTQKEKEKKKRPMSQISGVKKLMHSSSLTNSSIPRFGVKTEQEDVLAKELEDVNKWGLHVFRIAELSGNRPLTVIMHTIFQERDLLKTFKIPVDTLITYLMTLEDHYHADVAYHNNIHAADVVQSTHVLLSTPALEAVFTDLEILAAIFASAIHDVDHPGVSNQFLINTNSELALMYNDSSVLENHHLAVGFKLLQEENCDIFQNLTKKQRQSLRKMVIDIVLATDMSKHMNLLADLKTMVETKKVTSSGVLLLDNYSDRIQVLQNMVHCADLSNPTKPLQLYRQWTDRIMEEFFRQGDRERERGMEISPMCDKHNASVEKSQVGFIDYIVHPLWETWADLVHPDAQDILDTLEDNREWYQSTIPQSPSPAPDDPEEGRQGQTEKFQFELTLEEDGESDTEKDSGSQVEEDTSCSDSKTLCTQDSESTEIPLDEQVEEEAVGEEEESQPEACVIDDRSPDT
Description: as §10

[2] = tested on: eosinophil derived neurotoxin (EDN) release, human whole blood eosinophils; assay: Sephadex beads-induced EDN release in human whole blood (eosinophil degranulation); type: cell-based; conditions: for IC50: Homo sapiens, Eosinophil, read-out: HWB Eosinophil IC30 or IC50, EDN; for Enantiomer (+) vs. (−), EDN: potency of (+) relative to (−) enantiomer, human whole blood
Description: as §1, §2, §3, §4, §5, §6, §7, §8
% Control EDN=[EDN(compound)−EDN(blank)]/[EDN(total)−EDN(blank)]
as §9, §10

human recombinant PDE4A = human recombinant PDE4A (Homo sapiens, UniProt P27815); assay: Hydrolysis of 1 uM cAMP by human recombinant PDE4A; type: biochemical; conditions: for IC50: human recombinant PDE4A, 1 uM cAMP, read-out: Isozyme - IC50, A; for Enantiomer (+) vs. (−), PDE4A: potency of (+) relative to (−) enantiomer
human recombinant PDE4A, sequence (P27815 whole entry): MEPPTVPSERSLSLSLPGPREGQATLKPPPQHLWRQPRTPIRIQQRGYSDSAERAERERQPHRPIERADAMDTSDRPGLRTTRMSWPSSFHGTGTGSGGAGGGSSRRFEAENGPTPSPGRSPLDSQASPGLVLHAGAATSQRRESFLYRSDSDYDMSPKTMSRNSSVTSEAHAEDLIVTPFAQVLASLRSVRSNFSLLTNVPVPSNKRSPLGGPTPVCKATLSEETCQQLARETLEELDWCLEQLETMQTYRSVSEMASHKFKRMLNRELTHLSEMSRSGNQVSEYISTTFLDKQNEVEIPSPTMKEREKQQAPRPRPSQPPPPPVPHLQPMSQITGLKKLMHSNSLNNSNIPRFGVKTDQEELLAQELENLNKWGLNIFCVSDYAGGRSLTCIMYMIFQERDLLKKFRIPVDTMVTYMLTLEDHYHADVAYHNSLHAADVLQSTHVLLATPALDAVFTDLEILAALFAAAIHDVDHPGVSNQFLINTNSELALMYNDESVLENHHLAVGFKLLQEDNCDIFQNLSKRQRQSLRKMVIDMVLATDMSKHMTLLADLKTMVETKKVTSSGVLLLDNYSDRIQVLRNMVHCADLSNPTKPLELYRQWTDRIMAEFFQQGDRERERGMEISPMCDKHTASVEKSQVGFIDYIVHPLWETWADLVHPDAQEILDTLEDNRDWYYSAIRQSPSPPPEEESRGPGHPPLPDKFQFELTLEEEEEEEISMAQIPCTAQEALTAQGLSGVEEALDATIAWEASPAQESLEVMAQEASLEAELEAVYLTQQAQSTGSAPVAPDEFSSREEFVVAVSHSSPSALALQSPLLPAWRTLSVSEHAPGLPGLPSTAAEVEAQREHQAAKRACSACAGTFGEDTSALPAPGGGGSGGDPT
Description: as §10

human recombinant PDE4B = human recombinant PDE4B (Homo sapiens, UniProt Q07343); assay: Hydrolysis of 1 uM cAMP by human recombinant PDE4B; type: biochemical; conditions: for IC50: human recombinant PDE4B, 1 uM cAMP, read-out: Isozyme - IC50, B; for Enantiomer (+) vs. (−), PDE4B: potency of (+) relative to (−) enantiomer
human recombinant PDE4B, sequence (Q07343 whole entry): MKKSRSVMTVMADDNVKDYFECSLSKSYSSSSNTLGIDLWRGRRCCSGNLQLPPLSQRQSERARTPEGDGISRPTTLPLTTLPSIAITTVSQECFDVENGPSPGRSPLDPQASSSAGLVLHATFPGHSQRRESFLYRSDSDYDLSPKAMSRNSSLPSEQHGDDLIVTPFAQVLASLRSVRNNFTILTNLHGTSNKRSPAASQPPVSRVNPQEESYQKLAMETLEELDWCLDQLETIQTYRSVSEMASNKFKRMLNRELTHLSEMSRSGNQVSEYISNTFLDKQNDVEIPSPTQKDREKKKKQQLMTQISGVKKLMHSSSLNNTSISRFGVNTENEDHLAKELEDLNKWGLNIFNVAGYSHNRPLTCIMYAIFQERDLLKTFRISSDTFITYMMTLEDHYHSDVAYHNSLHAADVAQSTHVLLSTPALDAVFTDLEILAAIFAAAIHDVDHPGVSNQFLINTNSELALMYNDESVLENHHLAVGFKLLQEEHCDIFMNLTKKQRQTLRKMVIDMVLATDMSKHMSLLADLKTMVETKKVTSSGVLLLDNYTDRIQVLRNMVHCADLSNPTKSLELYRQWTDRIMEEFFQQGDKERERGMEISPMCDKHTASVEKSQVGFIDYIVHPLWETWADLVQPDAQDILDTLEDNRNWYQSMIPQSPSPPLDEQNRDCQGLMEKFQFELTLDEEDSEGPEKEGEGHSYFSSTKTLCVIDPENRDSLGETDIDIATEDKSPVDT
Description: as §10

human recombinant PDE4C = human recombinant PDE4C (Homo sapiens, UniProt Q08493); assay: Hydrolysis of 1 uM cAMP by human recombinant PDE4C; type: biochemical; conditions: for IC50: human recombinant PDE4C, 1 uM cAMP, read-out: Isozyme - IC50, C; for Enantiomer (+) vs. (−), PDE4C: potency of (+) relative to (−) enantiomer
human recombinant PDE4C, sequence (Q08493 whole entry): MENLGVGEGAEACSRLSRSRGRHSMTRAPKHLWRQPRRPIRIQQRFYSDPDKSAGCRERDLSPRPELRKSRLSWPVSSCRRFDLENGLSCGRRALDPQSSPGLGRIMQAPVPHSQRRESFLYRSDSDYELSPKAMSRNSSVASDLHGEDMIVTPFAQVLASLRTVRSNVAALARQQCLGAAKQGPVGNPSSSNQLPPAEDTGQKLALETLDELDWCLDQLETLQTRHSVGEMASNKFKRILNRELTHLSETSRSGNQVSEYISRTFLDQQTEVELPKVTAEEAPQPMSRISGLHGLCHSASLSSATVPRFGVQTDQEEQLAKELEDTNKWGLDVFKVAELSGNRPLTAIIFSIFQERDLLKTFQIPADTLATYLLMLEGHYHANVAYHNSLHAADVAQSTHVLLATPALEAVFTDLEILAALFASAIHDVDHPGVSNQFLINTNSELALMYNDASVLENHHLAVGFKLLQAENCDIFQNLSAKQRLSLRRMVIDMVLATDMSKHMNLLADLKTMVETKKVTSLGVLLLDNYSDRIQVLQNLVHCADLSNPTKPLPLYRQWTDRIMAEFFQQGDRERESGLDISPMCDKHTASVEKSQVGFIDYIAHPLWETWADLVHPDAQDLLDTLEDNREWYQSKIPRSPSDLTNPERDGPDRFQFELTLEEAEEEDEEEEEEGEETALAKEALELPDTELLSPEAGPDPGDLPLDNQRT
Description: as §10

COc1ccc([C@H](C)NC(=O)c2cccnc2Oc2ccc(F)cc2)cc1 [(+) Enantiomer, (S)-(+) 2-(4-Fluoro-phenoxy)-N-[1-(4-methoxy-phenyl)-ethyl]-nicotinamide]
IC50 [1]: 8 nM
Enantiomer (+) vs. (−), LTE4 [1]: 20-37 X
IC50 (human recombinant PDE4D): 9 nM
Enantiomer (+) vs. (−), PDE4D (human recombinant PDE4D): 22 X
IC50 [2]: 50 nM
Enantiomer (+) vs. (−), EDN [2]: 20-37 X
IC50 (human recombinant PDE4A): 600 nM
Enantiomer (+) vs. (−), PDE4A (human recombinant PDE4A): approximately equipotent
IC50 (human recombinant PDE4B): 600 nM
Enantiomer (+) vs. (−), PDE4B (human recombinant PDE4B): approximately equipotent
IC50 (human recombinant PDE4C): 800 nM
Enantiomer (+) vs. (−), PDE4C (human recombinant PDE4C): approximately equipotent

(S)-(+) 2-(4-Fluoro-phenoxy)-N-[1-(4-methoxy-phenyl)-ethyl]-nicotinamide [(+) Enantiomer]
Enantiomer (+) vs. (−), LTE4 [1]: 37X
Enantiomer (+) vs. (−), PDE4D (human recombinant PDE4D): 22X
Enantiomer (+) vs. (−), EDN [2]: 20X
Enantiomer (+) vs. (−), PDE4A (human recombinant PDE4A): .s.
Enantiomer (+) vs. (−), PDE4B (human recombinant PDE4B): .5X
Enantiomer (+) vs. (−), PDE4C (human recombinant PDE4C): 0.5X

COc1ccc([C@@H](C)NC(=O)c2cccnc2Oc2ccc(F)cc2)cc1 [(−) Enantiomer, (R)(−)2-(4-Fluoro-phenoxy)-N-[1-(4-methoxy-phenyl)-ethyl]-nicotinamide]
IC50 [1]: 300 nM
IC50 (human recombinant PDE4D): 200 nM
IC50 [2]: 1000 nM
IC50 (human recombinant PDE4A): 600 nM
IC50 (human recombinant PDE4B): 300 nM
IC50 (human recombinant PDE4C): 400 nM

O=C(NCc1c(F)cccc1Cl)c1cccnc1Oc1ccc(F)cc1 [Example 5, N-(2-Chloro-6-fluoro-benzyl)-2-(4-fluoro-phenoxy)-nicotinamide]
melting point: 115 to 118 °C

CC(C)(O)[C@H]1CC[C@H](CNC(=O)c2cccnc2Oc2ccc(F)c(F)c2)CC1 [Example 240, trans-2-(3,4-Difluoro-phenoxy)-N-[4-(1-hydroxy-1-methyl-ethyl)-cyclohexylmethyl]-nicotinamide]
melting point: 80 to 82 °C

C[C@@H](NC(=O)c1cccnc1Oc1cccnc1)c1cccs1 (as salt: HCl) [Example 47, (R)(−)-2-(Pyridin-3-yloxy)-N-(1-thiophen-2-yl-ethyl)-nicotinamide]
melting point: 197 to 199 °C

CC(C)(O)c1ccc(CNC(=O)c2cccnc2Oc2cccc(C#N)c2)cc1 [Example 113, 2-(3-Cyano-phenoxy)-N-[4-(1-hydroxy-1-methyl-ethyl)-benzyl]-nicotinamide]
melting point: 97 to 99 °C

O=C(NCc1cc(Cl)cs1)c1cccnc1Oc1cncc(Cl)c1 [Example 55, 2-(5-Chloro-pyridin-3-yloxy)-N-(4-chloro-thiophen-2-ylmethyl)-nicotinamide]
melting point: 94 to 96 °C

O=C(NCc1ccc(F)s1)c1cccnc1Oc1cccnc1 [Example 32, N-(5-Fluoro-thiophen-2-ylmethyl)-2-(pyridin-3-yloxy)-nicotinamide]
melting point: 99 to 101 °C

O=C(NCc1ccncc1)c1cccnc1Oc1cccnc1 [Example 208, N-Pyridin4-ylmethyl-2-(pyridin-3-yloxy)-nicotinamide]
melting point: 142 to 144 °C

CCC(O)(CC)c1ccc(CNC(=O)c2cccnc2Oc2ccc(F)cc2)s1 [Example 80, N-[5-(1-Ethyl-1-hydroxy-propyl)-thiophen-2-ylmethyl]-2-(4-fluoro-phenoxy)-nicotinamide]
melting point: 95 to 97 °C

CC(C)(O)c1ccc(CNC(=O)c2cccnc2Oc2cccc([N+](=O)[O-])c2)cc1 [Example 107, N-[4-(1-Hydroxy-1-methyl-ethyl)-benzyl]-2-(3-nitro-phenoxy)-nicotinamide]
melting point: 43 to 45 °C
